How the values were obtained:
Experiment in all cases: relative viability (nuclei count vs DMSO), 5 days (fraction); higher = more cells survive
[1] = compound: CN(c1ncccc1CNc1nc(Nc2ccc3c(c2)CC(=O)N3)ncc1C(F)(F)F)S(C)(=O)=O + Cc1cc(Nc2cc(N3CCN(C)CC3)nc(Sc3ccc(NC(=O)C4CC4)cc3)n2)n[nH]1 [Tozasertib] (partner 0.1 µM)
Summary of the method: (§1)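 Lung cancer cell lines, seeded in 1536-well plates, were treated the following day by pin tool with a single drug or with five library-drug doses (not always all listed) in √10 steps on top of a fixed anchor-drug dose. Cells were fixed and nuclei stained in one step after 5 days, and nuclei were counted. Relative viability is the nuclei count for treated wells divided by that for vehicle wells, reported as medians of duplicate plates.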

[2] = compound: CN(c1ncccc1CNc1nc(Nc2ccc3c(c2)CC(=O)N3)ncc1C(F)(F)F)S(C)(=O)=O + COc1cc2c(Oc3ccc(NC(=O)C4(C(=O)Nc5ccc(F)cc5)CC4)cc3F)ccnc2cc1OCCCN1CCOCC1 [Foretinib] (partner 0.25 µM)
Summary of the method: as §1

[3] = compound: CN(c1ncccc1CNc1nc(Nc2ccc3c(c2)CC(=O)N3)ncc1C(F)(F)F)S(C)(=O)=O + NC(=O)Nc1cc(-c2cccc(F)c2)sc1C(=O)N[C@H]1CCCNC1 [AZD7762] (partner 0.2 µM)
Summary of the method: as §1

[4] = compound: CN(c1ncccc1CNc1nc(Nc2ccc3c(c2)CC(=O)N3)ncc1C(F)(F)F)S(C)(=O)=O + CCNC(=O)c1noc(-c2cc(C(C)C)c(O)cc2O)c1-c1ccc(CN2CCOCC2)cc1 [Luminespib] (partner 0.01 µM)
Summary of the method: as §1

Cell Line	relative viability ([1]; first compound 0.01 µM)	relative viability ([1]; first compound 0.03162 µM)	relative viability ([1]; first compound 0.1 µM)	relative viability ([1]; first compound 0.3162 µM)	relative viability ([1]; first compound 1 µM)	relative viability ([2]; first compound 0.01 µM)	relative viability ([2]; first compound 0.03162 µM)	relative viability ([2]; first compound 0.1 µM)	relative viability ([2]; first compound 0.3162 µM)	relative viability ([2]; first compound 1 µM)	relative viability ([3]; first compound 0.01 µM)	relative viability ([3]; first compound 0.03162 µM)	relative viability ([3]; first compound 0.1 µM)	relative viability ([3]; first compound 0.3162 µM)	relative viability ([3]; first compound 1 µM)	relative viability ([4]; first compound 0.01 µM)	relative viability ([4]; first compound 0.03162 µM)	relative viability ([4]; first compound 0.1 µM)	relative viability ([4]; first compound 0.3162 µM)	relative viability ([4]; first compound 1 µM)
NCI-H1793	0.32	0.379	0.332	0.222	0.23	0.58	0.641	0.667	0.449	0.523	0.407	0.541	0.543	0.53	0.452	0.218	0.181	0.212	0.175	0.138
NCI-H1915	0.488	0.488	0.462	0.424	0.373	1.13	1.06	1.04	1.12	1.04	0.762	0.654	0.696	0.703	0.76	0.821	0.636	0.711	0.729	0.729
NCI-H1944	0.238	0.279	0.247	0.261	0.243	0.771	0.941	0.87	0.938	0.79	0.723	0.571	0.602	0.672	0.658	0.779	0.926	0.818	0.732	0.828
NCI-H1975	0.737	0.793	0.784	0.665	0.46	0.962	0.984	0.959	0.84	0.929	0.85	0.839	0.822	0.645	0.755	0.243	0.259	0.239	0.389	0.194
NCI-H1993	0.528	0.615	0.659	0.595	0.551	0.692	0.994	0.744	0.75	0.767	0.852	0.837	0.836	0.634	0.737	0.859	0.849	0.752	0.755	0.65
NCI-H2085	0.797	0.721	0.772	0.697	0.584	0.878	0.925	0.906	0.824	0.748	1	1.02	1.02	1.07	1.03	0.394	0.681	0.457	0.418	0.36
NCI-H2087	0.224	0.238	0.236	0.293	0.207	1.04	1.03	1.02	1.2	0.974	1.28	1.3	1.32	1.35	1.2	0.164	0.239	0.162	0.185	0.185
NCI-H2126	0.793	0.91	0.85	0.787	0.714	1.34	1.13	1.06	1.19	1.08	1.03	1.08	0.961	0.904	0.902	0.905	0.9	0.778	0.941	0.761

— the supplement of paper PMC10307832
